Read-outs that look alike come from different tables or passages of the source.
What was measured:
[1] = tested on: U87MG (glioblastoma); assay: U-87 MG WST assay (cell growth / cell viability); type: cell-based, human; conditions: for IC50: Homo sapiens; for effect on cell growth and cell viability of U87MG: U87MG in vitro, result in words
[2] = tested on: A549 (lung carcinoma); assay: A549 WST assay (cell growth / cell viability); type: cell-based, human; conditions: for IC50: Homo sapiens; for effect on cell growth and cell viability of A549: A549 in vitro, result in words
[3] = U-87 MG, U87MG (glioblastoma), summary, FIG. 1 / Discussion, read-out: IC50, inhibition of growth in vitro of U87MG
[4] = first U-87 MG WST assay, FIG. 4, read-out: IC50, first U-87 MG WST assay
[5] = second U-87 MG WST assay, FIG. 5, read-out: IC50, second U-87 MG WST assay
[6] = A549 (lung carcinoma), summary, FIG. 1 / Discussion, read-out: IC50, inhibition of growth in vitro of A549
[7] = first A549 WST assay, FIG. 2, read-out: IC50, first A549 WST assay
[8] = second A549 WST assay, FIG. 3, read-out: IC50, second A549 WST assay
[9] = listed as N-ethyl derivative of sanguinarine

| SMILES | IC50 [1, 3] [µM] | IC50 [1, 4] [µM] | IC50 [1, 5] [µM] | melting point [°C] | IC50 [2, 6] [µM] | IC50 [2, 7] [µM] | IC50 [2, 8] [µM] | effect on cell growth and cell viability of U87MG [1] | effect on cell growth and cell viability of U87MG [1, 9] | effect on cell growth and cell viability of A549 [2] | effect on cell growth and cell viability of A549 [2, 9] |
| --- | --- | --- | --- | --- | --- | --- | --- | --- | --- | --- | --- |
| c1c2c(cc3c1OCO3)-c1ncc3c4c(ccc3c1CC2)OCO4 [Compound 14, 11,12-Dihydro-2,3,7,8-bismethylenedioxybenzo[c]phenanthridine] | > 10 | > 10 | > 10 | 246 to 247 | > 10 | > 10 | > 10 |  |  |  |  |
| c1cc2c(cnc3c4cc5c(cc4ccc23)OCO5)c2c1OCO2 [Compound 15, 2,3,7,8-bismethylene-dioxybenzo[c]-phenanthridine] | > 10 | > 10 | > 10 | 270 to 272 | > 10 | > 10 | > 10 |  |  |  |  |
| CC[n+]1cc2c3c(ccc2c2ccc4cc5c(cc4c21)OCO5)OCO3.[Cl-] [Compound 17, N-Ethyl Derivative of Sanguinarine] | ~3.3 | ~3.3 | ~3.3 | 258 to 259 | ~1.6 | ~1.6 | ~1.6 | inhibits cell growth and reduces cell viability | inhibited cell growth | inhibits cell growth and reduces cell viability | inhibited cell growth |
| CC[C@@]1(O)C(=O)OCc2c1cc1n(c2=O)Cc2cc3c(CN(C)C)c(O)ccc3nc2-1 [Topotecan, reference compound] | 0.3 | ~0.3 | ~0.3 |  | 0.2 | ~0.2 | ~0.2 |  |  |  |  |
| C[n+]1cc2c3c(ccc2c2ccc4cc5c(cc4c21)OCO5)OCO3 [sanguinarine, 13-methyl-[1,3]benzodioxolo[5,6-c]-1,3-dioxolo[4,5-i]phenanthridinium, reference compound] | 2 | 2 | 2 |  | 0.8 | 0.8 | 0.8 |  |  |  |  |

— patent publication US20160009727A1, “SA[…] PP2C INHIBITORS FOR CANCER TREATMENT” (Lixte Biotechnology, Inc., priority 2013, published 2016)
